Measured values from ChEMBL document CHEMBL3352754, “Bicyclic tetrapeptides as potent HDAC inhibitors: effect of aliphatic loop position and hydrophobicity on inhibitory activity” (Bioorg Med Chem, 2014).
pIC50: −log10 of the molar value. Square brackets hold non-standard residues; d marks the D form. Peptide text beside a SMILES is read from it. * marks the point of attachment. Asu = N[C@@H](CCCCCC(=O)O)C(=O)O; NHOH = ON*

Key:
[1] = Retention time by HPLC method; format: physicochemical
[2] = biological target: Histone deacetylase 1 (Homo sapiens, UniProt Q13547); test: Inhibition of human HDAC1 expressed in HEK293T cells assessed as aminomethyl coumarin release using Ac-KGLGK(Ac)-MCA) substrate after 30 mins by FLIPR method; format: cell-based, HEK-293T
Sequence of Histone deacetylase 1 (Q13547 whole entry): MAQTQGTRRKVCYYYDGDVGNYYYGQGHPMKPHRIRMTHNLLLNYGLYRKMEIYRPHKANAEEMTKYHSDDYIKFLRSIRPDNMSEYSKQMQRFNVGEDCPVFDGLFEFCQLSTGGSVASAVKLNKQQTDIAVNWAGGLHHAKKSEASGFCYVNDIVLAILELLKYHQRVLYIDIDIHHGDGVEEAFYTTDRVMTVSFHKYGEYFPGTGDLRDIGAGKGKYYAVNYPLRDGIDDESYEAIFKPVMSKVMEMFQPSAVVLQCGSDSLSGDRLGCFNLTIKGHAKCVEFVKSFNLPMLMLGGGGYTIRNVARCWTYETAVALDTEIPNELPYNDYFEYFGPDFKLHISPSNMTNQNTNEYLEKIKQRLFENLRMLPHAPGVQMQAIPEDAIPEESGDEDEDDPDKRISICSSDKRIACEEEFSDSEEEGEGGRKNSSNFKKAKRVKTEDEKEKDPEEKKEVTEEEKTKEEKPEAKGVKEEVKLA

[3] = biological target: T1, Protein deacetylase HDAC6 (Mus musculus, UniProt Q9Z2V5); test: Inhibition of mouse HDAC6 expressed in HEK293T cells assessed as aminomethyl coumarin release using Ac-KGLGK(Ac)-MCA) substrate after 30 mins by FLIPR method; format: cell-based, HEK-293T
T1 sequence (Q9Z2V5 whole entry): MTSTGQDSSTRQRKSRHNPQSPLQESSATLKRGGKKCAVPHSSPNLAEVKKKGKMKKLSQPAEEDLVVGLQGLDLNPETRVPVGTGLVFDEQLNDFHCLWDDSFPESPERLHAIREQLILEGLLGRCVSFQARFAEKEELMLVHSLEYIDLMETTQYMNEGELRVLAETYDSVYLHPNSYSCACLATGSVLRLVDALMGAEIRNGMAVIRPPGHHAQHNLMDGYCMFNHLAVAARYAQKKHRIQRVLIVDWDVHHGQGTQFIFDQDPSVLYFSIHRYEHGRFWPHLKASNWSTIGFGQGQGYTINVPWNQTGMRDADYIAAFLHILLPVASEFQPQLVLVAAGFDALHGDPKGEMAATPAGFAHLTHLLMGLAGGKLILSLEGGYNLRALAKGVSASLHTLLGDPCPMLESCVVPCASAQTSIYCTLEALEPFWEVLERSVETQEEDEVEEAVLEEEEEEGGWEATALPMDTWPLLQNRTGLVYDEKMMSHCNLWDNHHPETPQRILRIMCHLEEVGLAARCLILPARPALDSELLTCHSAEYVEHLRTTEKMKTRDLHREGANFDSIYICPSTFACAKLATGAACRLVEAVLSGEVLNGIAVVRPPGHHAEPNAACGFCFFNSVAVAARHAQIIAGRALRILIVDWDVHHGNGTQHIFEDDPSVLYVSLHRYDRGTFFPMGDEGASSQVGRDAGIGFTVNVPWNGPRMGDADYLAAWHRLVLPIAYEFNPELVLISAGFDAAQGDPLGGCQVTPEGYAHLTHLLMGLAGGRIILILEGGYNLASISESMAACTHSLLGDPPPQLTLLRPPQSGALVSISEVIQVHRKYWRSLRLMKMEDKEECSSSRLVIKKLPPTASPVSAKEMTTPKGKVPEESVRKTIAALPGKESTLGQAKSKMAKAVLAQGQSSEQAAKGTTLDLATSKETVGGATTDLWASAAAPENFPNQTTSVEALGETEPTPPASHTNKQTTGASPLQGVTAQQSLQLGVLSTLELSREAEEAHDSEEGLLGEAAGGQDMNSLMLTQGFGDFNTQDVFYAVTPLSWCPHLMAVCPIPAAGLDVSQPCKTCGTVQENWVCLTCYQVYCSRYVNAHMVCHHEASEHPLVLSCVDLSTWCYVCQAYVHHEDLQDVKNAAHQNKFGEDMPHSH

[4] = tested on: Mv1Lu; test: Inhibition of HDAC in mink Mv1Lu cells expressing human wild-type p21 promoter luciferase fusion plasmid assessed as drug level inducing 10-fold higher luciferase activity by p21 promoter assay relative to baseline; format: cell-based; conditions: Neovison vison
[5] = Selectivity index, ratio of IC50 for mouse HDAC6 to IC50 for human HDAC1
[6] = biological target: Histone deacetylase 4 (Homo sapiens, UniProt P56524); test: Inhibition of human HDAC4 expressed in HEK293T cells assessed as aminomethyl coumarin release using Ac-KGLGK(Ac)-MCA) substrate after 30 mins by FLIPR method; format: cell-based; conditions: hek-293t
Sequence of Histone deacetylase 4 (P56524 whole entry): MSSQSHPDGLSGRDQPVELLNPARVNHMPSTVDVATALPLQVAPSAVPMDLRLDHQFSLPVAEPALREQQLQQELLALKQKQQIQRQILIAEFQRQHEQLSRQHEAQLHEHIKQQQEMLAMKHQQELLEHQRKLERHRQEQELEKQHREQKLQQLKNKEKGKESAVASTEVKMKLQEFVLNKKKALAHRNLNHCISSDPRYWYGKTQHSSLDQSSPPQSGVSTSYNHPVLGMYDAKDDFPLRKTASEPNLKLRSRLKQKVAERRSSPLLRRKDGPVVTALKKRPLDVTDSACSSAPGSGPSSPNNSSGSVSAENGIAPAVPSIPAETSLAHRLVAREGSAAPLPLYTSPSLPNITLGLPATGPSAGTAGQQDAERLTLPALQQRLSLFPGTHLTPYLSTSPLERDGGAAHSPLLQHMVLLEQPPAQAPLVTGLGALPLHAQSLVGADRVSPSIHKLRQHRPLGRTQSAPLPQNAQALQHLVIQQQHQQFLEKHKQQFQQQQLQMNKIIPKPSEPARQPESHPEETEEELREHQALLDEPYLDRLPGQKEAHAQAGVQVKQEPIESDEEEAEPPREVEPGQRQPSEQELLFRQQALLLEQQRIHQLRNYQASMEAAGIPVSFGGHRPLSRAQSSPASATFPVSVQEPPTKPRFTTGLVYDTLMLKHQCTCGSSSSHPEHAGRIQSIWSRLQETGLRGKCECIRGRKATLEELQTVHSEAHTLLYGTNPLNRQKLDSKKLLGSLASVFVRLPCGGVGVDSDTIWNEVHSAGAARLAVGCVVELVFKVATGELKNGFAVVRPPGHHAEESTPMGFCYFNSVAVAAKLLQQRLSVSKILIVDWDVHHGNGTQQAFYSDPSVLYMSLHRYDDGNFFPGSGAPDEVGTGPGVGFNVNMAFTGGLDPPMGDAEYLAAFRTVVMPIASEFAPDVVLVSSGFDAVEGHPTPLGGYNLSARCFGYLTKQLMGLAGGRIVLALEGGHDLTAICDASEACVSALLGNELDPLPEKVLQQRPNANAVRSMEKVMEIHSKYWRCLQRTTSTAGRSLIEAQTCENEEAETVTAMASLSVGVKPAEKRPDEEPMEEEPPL

| Compound | Retention_time [1] [min] | pIC50 [2] | pIC50 [3] | EC1000 [4] [nM] | Ratio IC50 [5] | pIC50 [6] |
| --- | --- | --- | --- | --- | --- | --- |
| O=C(CCCCC[C@@H]1NC(=O)[C@H]2CCCN2C(=O)[C@@H]2CCOCCCCOCC[C@@H](NC1=O)C(=O)N2)NO | 4.31 | 7.51 | 6.62 | 2200 | 7.7 | 7.39 |
| O=C(CCCCC[C@@H]1NC(=O)[C@H]2CCCCCCCCCC[C@H](NC(=O)[C@H]3CCCN3C1=O)C(=O)N2)NO | 7.06 | 7.60 | 6.31 | 58 | 19.6 | 7.51 |
| CCCCC[C@@H]1NC(=O)[C@H]2CCCN2C(=O)[C@H](CCCCCC(=O)NO)NC(=O)[C@@H](CCCCC)NC1=O | 7.67 | 7.37 | 6.24 | 80 | 13.3 | 7.37 |
| CC[C@H](C)[C@@H]1NC(=O)[C@@H](Cc2ccc(OC)cc2)NC(=O)[C@H](CCCCCC(=O)NO)NC(=O)[C@H]2CCCN2C1=O (cyclo([Asu](NHOH)[dY](Me)I[dP])) | – | 9.40 | 7.89 | 22 | 32.5 | 8.52 |
| O=C(CCCCC[C@@H]1NC(=O)[C@H]2CCCN2C(=O)[C@@H]2CCCCCCCCCC[C@@H](NC1=O)C(=O)N2)NO | 6.03 | – | 6.39 | 7.2 | 45.1 | – |
| CCCCC[C@@H]1NC(=O)[C@H](CCCCCC(=O)NO)NC(=O)[C@H]2CCCN2C(=O)[C@H](CCCCC)NC1=O | 6.55 | 7.43 | 6.85 | 80 | 3.7 | 7.82 |
| O=C(CCCCC[C@@H]1NC(=O)[C@H]2CCCN2C(=O)[C@@H]2CCCCCCCCCC[C@H](NC1=O)C(=O)N2)NO | 5.8 | 7.60 | 6.64 | 510 | 9.2 | 7.59 |
| CCCCC[C@@H]1NC(=O)[C@@H](CCCCC)NC(=O)[C@H](CCCCCC(=O)NO)NC(=O)[C@H]2CCCN2C1=O | 7.51 | – | 6.47 | 13 | 13.6 | – |
